#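 Exposure lasted 48 hours, with cells grown in 96-well plates and compounds tested at five concentrations. TGI: total growth inhibition.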
# How the values were obtained:
# Assay in all cases: NCI anticancer screen, dose series, 48 h
# [1] = tested on: 786-0 renal
# [2] = tested on: A498 renal
# [3] = tested on: A549 NSCLC
# [4] = tested on: ACHN renal
# [5] = tested on: CAKI-1 renal
# [6] = tested on: CCRF-CEM leukemia
# [7] = tested on: COLO 205 colon
# [8] = tested on: DLD-1 colon
# [9] = tested on: DMS 114 small cell lung
# [10] = tested on: EKVX NSCLC
# [11] = tested on: HCC-2998 colon
# [12] = tested on: HCT-116 colon
# [13] = tested on: HCT-15 colon
# [14] = tested on: HL-60(TB) leukemia
# [15] = tested on: HOP-62 NSCLC
# [16] = tested on: HOP-92 NSCLC
# [17] = tested on: HT29 colon
# [18] = tested on: IGROV1 ovarian
# [19] = tested on: K-562 leukemia
# [20] = tested on: KM12 colon
# [21] = tested on: KM20L2 colon
# [22] = tested on: LOX IMVI melanoma
# [23] = tested on: LXFL 529 NSCLC
# [24] = tested on: M14 melanoma
# [25] = tested on: M19-MEL melanoma
# [26] = tested on: MALME-3M melanoma
# [27] = tested on: MOLT-4 leukemia
# [28] = tested on: NCI-H226 lung
# [29] = tested on: NCI-H23 lung
# [30] = tested on: NCI-H460 lung
# [31] = tested on: OVCAR-3 ovarian
# [32] = tested on: OVCAR-4 ovarian
# [33] = tested on: OVCAR-5 ovarian
# [34] = tested on: OVCAR-8 ovarian
# [35] = tested on: RPMI-8226 leukemia
# [36] = tested on: RXF 393 renal
# [37] = tested on: SF-268 CNS
# [38] = tested on: SF-295 CNS
# [39] = tested on: SF-539 CNS
# [40] = tested on: SK-MEL-2 melanoma
# [41] = tested on: SK-MEL-28 melanoma
# [42] = tested on: SK-MEL-5 melanoma
# [43] = tested on: SK-OV-3 ovarian
# [44] = tested on: SNB-19 CNS
# [45] = tested on: SNB-75 CNS
# [46] = tested on: SNB-78 CNS
# [47] = tested on: SR leukemia
# [48] = tested on: SW-620 colon
# [49] = tested on: TK-10 renal
# [50] = tested on: U251 CNS
# [51] = tested on: UACC-257 melanoma
# [52] = tested on: UACC-62 melanoma
# [53] = tested on: UO-31 renal
# [54] = tested on: XF 498 CNS
# [55] = tested on: DMS 273 small cell lung
# [56] = tested on: HOP-18 NSCLC
# [57] = tested on: SN12C renal
# [58] = tested on: NCI-H522 lung
# [59] = tested on: BT-549 breast
# [60] = tested on: DU-145 prostate
# [61] = tested on: HS 578T breast
# [62] = tested on: MCF7 breast
# [63] = tested on: MDA-MB-231 breast
# [64] = tested on: MDA-MB-435
# [65] = tested on: MDA-N
# [66] = tested on: NCI/ADR-RES ovarian
# [67] = tested on: PC-3 prostate
# [68] = tested on: T-47D breast
smiles,measurement,setting,value
CC1CC(=O)C(CC(=O)O)C1C(C(=O)C(=O)Nc1c(C#N)cccc1[N+](=O)[O-])[N+](=O)[O-] (stereo unspecified),TGI,[1],> 100 µM
same,TGI,[2],> 100 µM
same,TGI,[3],> 100 µM
same,TGI,[4],> 100 µM
same,TGI,[5],> 100 µM
same,TGI,[6],> 100 µM
same,TGI,[7],> 100 µM
same,TGI,[8],> 100 µM
same,TGI,[9],> 100 µM
same,TGI,[10],> 100 µM
same,TGI,[11],> 100 µM
same,TGI,[12],> 100 µM
same,TGI,[13],> 100 µM
same,TGI,[14],> 100 µM
same,TGI,[15],> 100 µM
same,TGI,[16],> 100 µM
same,TGI,[17],> 100 µM
same,TGI,[18],> 100 µM
same,TGI,[19],> 100 µM
same,TGI,[20],> 100 µM
same,TGI,[21],> 100 µM
same,TGI,[22],> 100 µM
same,TGI,[23],> 100 µM
same,TGI,[24],> 100 µM
same,TGI,[25],> 100 µM
same,TGI,[26],> 100 µM
same,TGI,[27],> 100 µM
same,TGI,[28],> 100 µM
same,TGI,[29],> 100 µM
same,TGI,[30],> 100 µM
same,TGI,[31],> 100 µM
same,TGI,[32],> 100 µM
same,TGI,[33],> 100 µM
same,TGI,[34],> 100 µM
same,TGI,[35],> 100 µM
same,TGI,[36],> 100 µM
same,TGI,[37],> 100 µM
same,TGI,[38],> 100 µM
same,TGI,[39],> 100 µM
same,TGI,[40],> 100 µM
same,TGI,[41],> 100 µM
same,TGI,[42],> 100 µM
same,TGI,[43],> 100 µM
same,TGI,[44],> 100 µM
same,TGI,[45],> 100 µM
same,TGI,[46],> 100 µM
same,TGI,[47],> 100 µM
same,TGI,[48],> 100 µM
same,TGI,[49],> 100 µM
same,TGI,[50],> 100 µM
same,TGI,[51],> 100 µM
same,TGI,[52],> 100 µM
same,TGI,[53],> 100 µM
same,TGI,[54],> 100 µM
CCN(CC)CCC(=O)c1ccccc1,TGI,[3],> 100 µM
same,TGI,[4],29.7 µM
same,TGI,[6],36.9 µM
same,TGI,[9],41.8 µM
same,TGI,[55],33.5 µM
same,TGI,[10],> 100 µM
same,TGI,[11],> 100 µM
same,TGI,[12],31.8 µM
same,TGI,[13],38.5 µM
same,TGI,[14],43.9 µM
same,TGI,[56],30.1 µM
same,TGI,[15],> 100 µM
same,TGI,[16],28.5 µM
same,TGI,[17],70.2 µM
same,TGI,[18],> 100 µM
same,TGI,[20],> 100 µM
same,TGI,[21],49.5 µM
same,TGI,[22],36 µM
same,TGI,[23],32.1 µM
same,TGI,[24],31.5 µM
same,TGI,[25],56.1 µM
same,TGI,[27],42.2 µM
same,TGI,[28],> 100 µM
same,TGI,[29],45.6 µM
same,TGI,[30],97.8 µM
same,TGI,[31],38.8 µM
same,TGI,[32],40.5 µM
same,TGI,[33],40.9 µM
same,TGI,[34],58 µM
same,TGI,[35],15.6 µM
same,TGI,[36],34.7 µM
same,TGI,[37],40.5 µM
same,TGI,[39],44.2 µM
same,TGI,[40],> 100 µM
same,TGI,[41],33 µM
same,TGI,[42],> 100 µM
same,TGI,[57],35.2 µM
same,TGI,[44],> 100 µM
same,TGI,[45],38.8 µM
same,TGI,[47],35.3 µM
same,TGI,[48],41.1 µM
same,TGI,[49],43.4 µM
same,TGI,[50],47.4 µM
same,TGI,[51],61.4 µM
same,TGI,[53],93 µM
CC(=O)[O-].CC(=O)[O-].O=C(N/N=C/c1cc(Cl)cc(Cl)c1[OH2+])c1ccncc1.[Zn+2],TGI,[1],> 100 µM
same,TGI,[2],> 100 µM
same,TGI,[3],> 100 µM
same,TGI,[4],> 100 µM
same,TGI,[6],> 100 µM
same,TGI,[7],> 100 µM
same,TGI,[10],> 100 µM
same,TGI,[11],> 100 µM
same,TGI,[12],> 100 µM
same,TGI,[13],> 100 µM
same,TGI,[14],> 100 µM
same,TGI,[15],> 100 µM
same,TGI,[18],> 100 µM
same,TGI,[19],> 100 µM
same,TGI,[20],> 100 µM
same,TGI,[21],> 100 µM
same,TGI,[22],> 100 µM
same,TGI,[24],> 100 µM
same,TGI,[26],> 100 µM
same,TGI,[27],> 100 µM
same,TGI,[28],> 100 µM
same,TGI,[29],> 100 µM
same,TGI,[30],> 100 µM
same,TGI,[58],> 100 µM
same,TGI,[31],94.8 µM
same,TGI,[33],> 100 µM
same,TGI,[34],> 100 µM
same,TGI,[35],> 100 µM
same,TGI,[36],> 100 µM
same,TGI,[37],> 100 µM
same,TGI,[38],> 100 µM
same,TGI,[39],> 100 µM
same,TGI,[41],> 100 µM
same,TGI,[42],> 100 µM
same,TGI,[43],> 100 µM
same,TGI,[57],> 100 µM
same,TGI,[44],> 100 µM
same,TGI,[45],> 100 µM
same,TGI,[47],> 100 µM
same,TGI,[48],> 100 µM
same,TGI,[49],> 100 µM
same,TGI,[50],> 100 µM
same,TGI,[51],> 100 µM
same,TGI,[52],> 100 µM
same,TGI,[53],> 100 µM
COc1cc(C=Nc2ccc(S(N)(=O)=O)cc2)cc(OC)c1,TGI,[1],> 50 µM
same,TGI,[2],> 50 µM
same,TGI,[3],> 50 µM
same,TGI,[4],> 50 µM
same,TGI,[59],> 50 µM
same,TGI,[5],> 50 µM
same,TGI,[6],> 50 µM
same,TGI,[7],> 50 µM
same,TGI,[60],> 50 µM
same,TGI,[10],> 50 µM
same,TGI,[11],> 50 µM
same,TGI,[12],> 50 µM
same,TGI,[13],> 50 µM
same,TGI,[14],36.8 µM
same,TGI,[15],> 50 µM
same,TGI,[16],> 50 µM
same,TGI,[61],> 50 µM
same,TGI,[17],> 50 µM
same,TGI,[18],> 50 µM
same,TGI,[19],> 50 µM
same,TGI,[20],> 50 µM
same,TGI,[22],> 50 µM
same,TGI,[24],> 50 µM
same,TGI,[26],> 50 µM
same,TGI,[62],> 50 µM
same,TGI,[63],> 50 µM
same,TGI,[64],49.3 µM
same,TGI,[65],> 50 µM
same,TGI,[27],> 50 µM
same,TGI,[28],> 50 µM
same,TGI,[29],> 50 µM
same,TGI,[30],> 50 µM
same,TGI,[66],> 50 µM
same,TGI,[31],> 50 µM
same,TGI,[32],> 50 µM
same,TGI,[33],> 50 µM
same,TGI,[34],> 50 µM
same,TGI,[67],> 50 µM
same,TGI,[35],> 50 µM
same,TGI,[36],> 50 µM
same,TGI,[37],> 50 µM
same,TGI,[38],> 50 µM
same,TGI,[39],> 50 µM
same,TGI,[40],> 50 µM
same,TGI,[41],> 50 µM
same,TGI,[42],> 50 µM
same,TGI,[43],> 50 µM
same,TGI,[57],> 50 µM
same,TGI,[44],> 50 µM
same,TGI,[45],> 50 µM
same,TGI,[47],> 50 µM
same,TGI,[68],> 50 µM
same,TGI,[49],> 50 µM
same,TGI,[50],> 50 µM
same,TGI,[51],> 50 µM
same,TGI,[52],> 50 µM
same,TGI,[53],> 50 µM

# Source: PubChem BioAssay (NCI)
